Laboratory results from PMC10518257 (Nature Cancer, 2023).
“And” between values parts separate entries of the source, which are not always exact repeats. Equal entries are not always repeated. Where two headings read alike, the source gives them in different places.

Columns and labels:
[1] = system: Ba/F3 cells expressing KIF5B–RET^WT; experiment: Growth inhibition assay in Ba/F3 cells (CellTiter-Glo, 72 h); format: cell-based
[2] = system: HBECp53-RET cells (CCDC6-RET fusion); experiment: Growth inhibition (alamarBlue, 96 h); format: cell-based, human; settings: for raw viability signal (Source Data Fig. 3b-c): HBEC-RET, replicate sets; for IC50: Homo sapiens, 96 h, read-out: IC50 for Inhibition of Growth (95% CI), HBECp53-RET, alamarBlue, 96 h
[3] = target: T1, panel of 255 (vepafestinib) or 256 (all other inhibitors) recombinant kinases (Homo sapiens, UniProt O14757); experiment: Kinase selectivity profiling at a single concentration (Carna Biosciences); format: biochemical; settings: 22 nM
T1 construct: purchased Carna Biosciences
T1 sequence (O14757 whole entry): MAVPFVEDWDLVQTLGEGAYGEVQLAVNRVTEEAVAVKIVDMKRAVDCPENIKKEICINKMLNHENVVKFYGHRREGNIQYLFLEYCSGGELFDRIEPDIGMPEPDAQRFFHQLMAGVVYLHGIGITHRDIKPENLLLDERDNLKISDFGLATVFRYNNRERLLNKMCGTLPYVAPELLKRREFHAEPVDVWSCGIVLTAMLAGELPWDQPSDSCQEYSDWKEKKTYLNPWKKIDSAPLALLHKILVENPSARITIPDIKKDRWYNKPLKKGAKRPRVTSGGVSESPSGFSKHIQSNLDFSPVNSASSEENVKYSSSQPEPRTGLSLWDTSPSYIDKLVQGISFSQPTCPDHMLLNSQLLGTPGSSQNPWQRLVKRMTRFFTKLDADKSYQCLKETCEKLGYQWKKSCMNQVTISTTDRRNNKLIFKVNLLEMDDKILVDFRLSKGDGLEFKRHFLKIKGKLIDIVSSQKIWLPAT

[4] = target: T2, panel of 255 (vepafestinib) or 256 (all other inhibitors) recombinant kinases (Homo sapiens, UniProt Q15375); experiment: as above; format: biochemical; settings: 22 nM
T2 construct: purchased Carna Biosciences

[5] = target: T3, panel of 255 (vepafestinib) or 256 (all other inhibitors) recombinant kinases (Homo sapiens, UniProt Q06418); experiment: as above; format: biochemical; settings: 22 nM
T3 construct: purchased Carna Biosciences

[6] = target: T4, panel of 255 (vepafestinib) or 256 (all other inhibitors) recombinant kinases (Homo sapiens, UniProt P11362); experiment: as above; format: biochemical
T4 construct: purchased Carna Biosciences
T4 sequence (P11362 22-822): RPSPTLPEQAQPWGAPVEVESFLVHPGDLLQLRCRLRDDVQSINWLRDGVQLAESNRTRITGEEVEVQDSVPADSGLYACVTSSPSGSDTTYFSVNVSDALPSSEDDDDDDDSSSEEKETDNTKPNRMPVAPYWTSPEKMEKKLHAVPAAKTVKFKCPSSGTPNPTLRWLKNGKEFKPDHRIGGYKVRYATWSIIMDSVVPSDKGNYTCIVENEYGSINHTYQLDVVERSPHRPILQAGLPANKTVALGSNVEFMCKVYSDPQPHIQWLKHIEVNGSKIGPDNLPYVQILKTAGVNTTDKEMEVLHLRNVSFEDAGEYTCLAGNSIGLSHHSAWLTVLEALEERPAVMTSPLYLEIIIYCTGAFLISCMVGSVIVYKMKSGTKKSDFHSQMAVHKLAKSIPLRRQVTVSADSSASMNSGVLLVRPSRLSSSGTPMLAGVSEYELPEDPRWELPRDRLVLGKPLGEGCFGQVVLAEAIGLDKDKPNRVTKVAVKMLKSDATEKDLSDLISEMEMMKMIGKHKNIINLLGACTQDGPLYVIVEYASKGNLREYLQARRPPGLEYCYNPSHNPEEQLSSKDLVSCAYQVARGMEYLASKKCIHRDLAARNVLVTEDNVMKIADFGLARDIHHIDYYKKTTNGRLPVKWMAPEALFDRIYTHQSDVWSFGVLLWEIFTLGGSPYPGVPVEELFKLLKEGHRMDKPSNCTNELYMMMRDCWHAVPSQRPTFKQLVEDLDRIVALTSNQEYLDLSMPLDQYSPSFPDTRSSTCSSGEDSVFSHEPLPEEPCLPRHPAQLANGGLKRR

[7] = target: T5, panel of 255 (vepafestinib) or 256 (all other inhibitors) recombinant kinases (Homo sapiens, UniProt Q08345); experiment: as above; format: biochemical
T5 construct: purchased Carna Biosciences

[8] = target: T6, panel of 255 (vepafestinib) or 256 (all other inhibitors) recombinant kinases (Homo sapiens, UniProt P21802); experiment: as above; format: biochemical
T6 construct: purchased Carna Biosciences
T6 sequence (P21802 22-821): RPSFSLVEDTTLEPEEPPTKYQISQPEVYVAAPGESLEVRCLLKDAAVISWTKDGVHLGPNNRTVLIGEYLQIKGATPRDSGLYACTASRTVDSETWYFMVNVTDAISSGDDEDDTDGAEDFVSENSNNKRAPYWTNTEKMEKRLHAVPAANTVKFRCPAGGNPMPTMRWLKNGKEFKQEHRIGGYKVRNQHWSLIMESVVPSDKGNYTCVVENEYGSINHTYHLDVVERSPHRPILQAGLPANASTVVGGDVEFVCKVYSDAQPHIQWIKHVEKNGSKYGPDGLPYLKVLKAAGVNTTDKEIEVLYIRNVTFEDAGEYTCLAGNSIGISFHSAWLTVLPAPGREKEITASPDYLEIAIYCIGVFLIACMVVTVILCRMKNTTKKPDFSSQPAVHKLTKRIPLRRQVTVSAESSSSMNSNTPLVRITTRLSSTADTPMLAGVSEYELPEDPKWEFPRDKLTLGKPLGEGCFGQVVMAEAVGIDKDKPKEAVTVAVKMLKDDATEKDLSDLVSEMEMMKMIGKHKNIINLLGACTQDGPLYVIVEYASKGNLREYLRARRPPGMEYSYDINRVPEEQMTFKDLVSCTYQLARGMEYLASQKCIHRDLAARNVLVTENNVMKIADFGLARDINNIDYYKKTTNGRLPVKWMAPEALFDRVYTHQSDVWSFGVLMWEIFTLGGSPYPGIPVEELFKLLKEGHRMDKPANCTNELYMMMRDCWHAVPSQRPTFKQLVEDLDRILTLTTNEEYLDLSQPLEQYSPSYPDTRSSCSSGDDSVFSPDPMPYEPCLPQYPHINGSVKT

[9] = target: T7, panel of 255 (vepafestinib) or 256 (all other inhibitors) recombinant kinases (Homo sapiens, UniProt P22607); experiment: as above; format: biochemical
T7 construct: purchased Carna Biosciences
T7 sequence (P22607 23-806): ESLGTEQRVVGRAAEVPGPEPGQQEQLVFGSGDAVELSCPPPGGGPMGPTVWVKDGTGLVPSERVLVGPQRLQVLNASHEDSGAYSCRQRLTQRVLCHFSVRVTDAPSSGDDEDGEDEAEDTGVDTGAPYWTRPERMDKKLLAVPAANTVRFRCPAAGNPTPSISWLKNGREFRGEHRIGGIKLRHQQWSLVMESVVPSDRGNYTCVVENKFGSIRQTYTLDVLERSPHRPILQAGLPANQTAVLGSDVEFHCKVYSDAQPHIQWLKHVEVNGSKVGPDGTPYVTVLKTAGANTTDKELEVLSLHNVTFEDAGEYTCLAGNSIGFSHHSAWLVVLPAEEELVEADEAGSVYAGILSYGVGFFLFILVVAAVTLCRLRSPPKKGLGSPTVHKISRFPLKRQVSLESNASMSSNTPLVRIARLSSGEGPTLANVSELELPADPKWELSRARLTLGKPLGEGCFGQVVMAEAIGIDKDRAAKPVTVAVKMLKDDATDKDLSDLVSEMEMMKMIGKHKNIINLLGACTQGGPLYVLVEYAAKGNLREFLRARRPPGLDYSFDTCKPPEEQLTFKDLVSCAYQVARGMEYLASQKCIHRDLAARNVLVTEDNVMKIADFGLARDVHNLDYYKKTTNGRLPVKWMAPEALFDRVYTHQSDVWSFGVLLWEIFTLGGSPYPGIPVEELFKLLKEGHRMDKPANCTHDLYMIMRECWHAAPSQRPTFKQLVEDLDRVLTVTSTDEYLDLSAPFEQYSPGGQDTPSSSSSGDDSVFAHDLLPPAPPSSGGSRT

[10] = target: T8, panel of 255 (vepafestinib) or 256 (all other inhibitors) recombinant kinases (Homo sapiens, UniProt P36888); experiment: as above; format: biochemical
T8 construct: purchased Carna Biosciences
T8 sequence (P36888 27-993): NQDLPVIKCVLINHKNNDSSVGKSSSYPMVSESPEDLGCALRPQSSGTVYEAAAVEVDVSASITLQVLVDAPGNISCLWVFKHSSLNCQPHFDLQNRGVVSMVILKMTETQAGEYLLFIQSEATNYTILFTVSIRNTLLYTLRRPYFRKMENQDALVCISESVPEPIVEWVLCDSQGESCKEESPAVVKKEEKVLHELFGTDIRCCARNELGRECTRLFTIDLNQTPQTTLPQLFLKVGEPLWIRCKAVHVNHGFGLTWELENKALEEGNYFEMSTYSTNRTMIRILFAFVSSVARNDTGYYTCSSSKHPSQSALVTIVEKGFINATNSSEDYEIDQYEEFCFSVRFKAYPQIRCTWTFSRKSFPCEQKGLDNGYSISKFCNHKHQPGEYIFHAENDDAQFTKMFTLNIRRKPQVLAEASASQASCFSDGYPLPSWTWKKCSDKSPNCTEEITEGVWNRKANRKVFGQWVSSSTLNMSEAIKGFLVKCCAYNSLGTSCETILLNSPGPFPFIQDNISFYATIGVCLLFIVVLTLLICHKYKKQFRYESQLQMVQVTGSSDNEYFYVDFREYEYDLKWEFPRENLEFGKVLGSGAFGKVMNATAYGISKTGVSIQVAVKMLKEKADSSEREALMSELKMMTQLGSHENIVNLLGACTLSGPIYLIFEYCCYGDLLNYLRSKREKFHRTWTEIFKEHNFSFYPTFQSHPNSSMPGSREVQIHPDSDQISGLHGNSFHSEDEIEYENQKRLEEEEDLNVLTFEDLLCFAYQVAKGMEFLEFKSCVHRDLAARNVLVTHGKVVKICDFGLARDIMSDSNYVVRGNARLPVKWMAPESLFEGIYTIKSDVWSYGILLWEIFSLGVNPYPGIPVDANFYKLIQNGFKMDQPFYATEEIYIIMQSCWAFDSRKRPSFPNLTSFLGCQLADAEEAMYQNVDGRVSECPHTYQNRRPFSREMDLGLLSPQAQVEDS

[11] = target: T9, panel of 255 (vepafestinib) or 256 (all other inhibitors) recombinant kinases (Homo sapiens, UniProt P07949); experiment: as above; format: biochemical
T9 construct: purchased Carna Biosciences

[12] = target: T10, panel of 255 (vepafestinib) or 256 (all other inhibitors) recombinant kinases (Homo sapiens, UniProt P09619); experiment: as above; format: biochemical
T10 construct: purchased Carna Biosciences
T10 sequence (P09619 33-1106): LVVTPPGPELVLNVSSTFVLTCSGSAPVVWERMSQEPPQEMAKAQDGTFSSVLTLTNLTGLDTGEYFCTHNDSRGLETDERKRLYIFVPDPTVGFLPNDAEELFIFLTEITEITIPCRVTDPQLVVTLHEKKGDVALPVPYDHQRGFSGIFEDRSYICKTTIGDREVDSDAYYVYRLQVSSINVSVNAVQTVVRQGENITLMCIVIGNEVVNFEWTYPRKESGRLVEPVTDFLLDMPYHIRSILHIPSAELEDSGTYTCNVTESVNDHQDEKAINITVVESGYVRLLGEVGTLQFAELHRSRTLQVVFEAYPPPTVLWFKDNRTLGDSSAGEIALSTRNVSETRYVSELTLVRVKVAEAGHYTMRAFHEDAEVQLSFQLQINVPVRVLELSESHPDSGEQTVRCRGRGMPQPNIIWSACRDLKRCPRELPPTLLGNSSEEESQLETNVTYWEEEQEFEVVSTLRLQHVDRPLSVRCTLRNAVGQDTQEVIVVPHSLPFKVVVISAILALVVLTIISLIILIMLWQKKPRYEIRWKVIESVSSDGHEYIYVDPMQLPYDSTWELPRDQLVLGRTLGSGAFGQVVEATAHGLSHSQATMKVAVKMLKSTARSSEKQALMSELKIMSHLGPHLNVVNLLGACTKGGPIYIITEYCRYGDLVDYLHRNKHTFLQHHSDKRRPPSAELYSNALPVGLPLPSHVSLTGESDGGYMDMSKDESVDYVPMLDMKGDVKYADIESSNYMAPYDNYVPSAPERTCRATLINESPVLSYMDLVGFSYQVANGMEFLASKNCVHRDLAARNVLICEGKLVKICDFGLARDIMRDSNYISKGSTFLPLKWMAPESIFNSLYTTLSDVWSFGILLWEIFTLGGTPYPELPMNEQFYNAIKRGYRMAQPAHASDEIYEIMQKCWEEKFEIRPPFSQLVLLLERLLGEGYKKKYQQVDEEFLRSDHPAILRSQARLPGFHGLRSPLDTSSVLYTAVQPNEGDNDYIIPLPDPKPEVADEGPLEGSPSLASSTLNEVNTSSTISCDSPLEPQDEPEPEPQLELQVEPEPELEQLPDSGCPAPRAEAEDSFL

LUAD-0087AS2 cells = experiment: Growth inhibition (alamarBlue, 96 h); format: cell-based, human; settings: for IC50: Homo sapiens, 96 h, read-out: IC50 for Inhibition of Growth (95% CI); for raw viability signal (Source Data Fig. 3b-c): LUAD-0087AS2, replicate sets
[13] = target: T11, panel of 255 (vepafestinib) or 256 (all other inhibitors) recombinant kinases (Homo sapiens, UniProt P35968); experiment: Kinase selectivity profiling at a single concentration (Carna Biosciences); format: biochemical; settings: 17 nM
T11 construct: purchased Carna Biosciences

[14] = Mus musculus, BaF3, Ba/3-KIF5B-RET, replicate sets

Structure (SMILES)	GI50 ([1]; Ba/3-KIF5B-RET, replicate sets)	GI50 [1, 14]	raw viability signal (Source Data Fig. 3b-c) ([2]; 0.01 nM)	raw viability signal (Source Data Fig. 3b-c) ([2]; 0.1 nM)	raw viability signal (Source Data Fig. 3b-c) ([2]; 1 nM)	raw viability signal (Source Data Fig. 3b-c) ([2]; 10 nM)	raw viability signal (Source Data Fig. 3b-c) ([2]; 100 nM)	raw viability signal (Source Data Fig. 3b-c) ([2]; 1000 nM)	raw viability signal (Source Data Fig. 3b-c) ([2]; 10000 nM)	IC50 [2]	IC50 (LUAD-0087AS2 cells)	raw viability signal (Source Data Fig. 3b-c) (LUAD-0087AS2 cells; 0.01 nM)	raw viability signal (Source Data Fig. 3b-c) (LUAD-0087AS2 cells; 0.1 nM)	raw viability signal (Source Data Fig. 3b-c) (LUAD-0087AS2 cells; 1 nM)	raw viability signal (Source Data Fig. 3b-c) (LUAD-0087AS2 cells; 10 nM)	raw viability signal (Source Data Fig. 3b-c) (LUAD-0087AS2 cells; 100 nM)	raw viability signal (Source Data Fig. 3b-c) (LUAD-0087AS2 cells; 1000 nM)	raw viability signal (Source Data Fig. 3b-c) (LUAD-0087AS2 cells; 10000 nM)	other results
COc1ccc(CN2C3CC2CN(c2ccc(-c4cc(OCC(C)(C)O)cn5ncc(C#N)c45)cn2)C3)cn1 [Selpercatinib]	6.35 nM and 7.55 nM	6.13 nM	18093.2 and 9060.84 and 18084.5	17267.5 and 9270.44 and 17759.2	17188.9 and 9066.79 and 17837.1	6462.76 and 8147.32 and 16191.8	3445.11 and 2694.56 and 6209.19	2899.6 and 1772.22 and 5277.83	2192.17 and 1006.02 and 4021.33	26 nM	11 nM	15388.6 and 12720.2	16047 and 13628.3	15441.4 and 12355.8	6632.52 and 4277.26	5690.09 and 3170.8	5599.27 and 2744.81	3412.76 and 2132.34	GI50 ([1]; Mus musculus, BaF3, 72 h, read-out: GI50 value (Mean ± SD), Ba/F3-KIF5B::RET, CellTiter-Glo, 72 h): 6.68 ± 0.76 nM; % Inhibiton CHK1 [3]: 15.2%; % Inhibiton EPHA7 [4]: 26.3%; % Inhibiton TYRO3 [5]: 38.2%; % Inhibiton FGFR1 ([6]; 22 nM): 21.4%; % Inhibiton DDR1 ([7]; 22 nM): 18%; % Inhibiton FGFR2 ([8]; 22 nM): 44.8%; % Inhibiton FGFR3 ([9]; 22 nM): 35.9%; % Inhibiton FLT3 ([10]; 22 nM): 52.5%; % Inhibiton RET ([11]; 22 nM): 98.6%; % Inhibiton PDGFRβ ([12]; 22 nM): 21.7%
CO[C@]1(C(=O)N[C@@H](C)c2ccc(-n3cc(F)cn3)nc2)CC[C@H](c2nc(C)cc(Nc3cc(C)[nH]n3)n2)CC1 [Pralsetinib]	7.33 nM and 4.09 nM	8.11 nM	15373.7 and 12510.4 and 10530.7 and 16787.4	15070.3 and 13088.9 and 11587.4 and 17702.2	15214.6 and 13110.8 and 10795 and 16054.2	6804.19 and 10276.4 and 9347.81 and 15758.2	3516.93 and 4294.46 and 3038.53 and 6985.58	2132.67 and 2668.84 and 1165.86 and 3483.36	830.793 and 1030.6 and 876.114 and 1589.72	35 nM	24 nM	10767.7 and 15151.6 and 17255.6 and 15692.7	11083.5 and 15670.9 and 15636 and 16225.5	10977.2 and 15832.3 and 16084.8 and 16863	7788.62 and 8365.43 and 13487.5 and 12530.5	2806.08 and 5716.79 and 2099.37 and 2602.78	2132.43 and 5081.65 and 1620.29 and 1608.1	2211.28 and 4121.33 and 1386.59 and 1376.18	% Inhibiton FGFR1 ([6]; 17 nM): 57%; % Inhibiton DDR1 ([7]; 17 nM): 72.1%; % Inhibiton FGFR2 ([8]; 17 nM): 29.4%; % Inhibiton FGFR3 ([9]; 17 nM): 34.3%; % Inhibiton FLT3 ([10]; 17 nM): 73.3%; % Inhibiton KDR [13]: 27.4%; % Inhibiton RET ([11]; 17 nM): 96.7%; % Inhibiton PDGFRβ ([12]; 17 nM): 69.8%
